Assay in all cases: Radiolabeled ATP kinase assay, panel of 60 kinases (Table S5)
Holding throughout (type): biochemical

For assay [1], the target named is T1, panel of 60 human kinases (Homo sapiens, UniProt P11802).
T1 construct: purchased Reaction Biology Corp
As to conditions: 0.1 μM, 10 μM ATP, read-out: % Enzyme Activity (relative to DSMO controls). Put shortly: (§1)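 Compounds at two concentrations, 0.1 μM and 0.5 μM, were screened for inhibition of 60 kinases in cell-free assays read out by radiolabeled ATP.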

Assay [2] concerns the target T2, panel of 60 human kinases (Homo sapiens, UniProt Q9UQB9).
T2 construct: purchased Reaction Biology Corp
T2 sequence (Q9UQB9 1-309): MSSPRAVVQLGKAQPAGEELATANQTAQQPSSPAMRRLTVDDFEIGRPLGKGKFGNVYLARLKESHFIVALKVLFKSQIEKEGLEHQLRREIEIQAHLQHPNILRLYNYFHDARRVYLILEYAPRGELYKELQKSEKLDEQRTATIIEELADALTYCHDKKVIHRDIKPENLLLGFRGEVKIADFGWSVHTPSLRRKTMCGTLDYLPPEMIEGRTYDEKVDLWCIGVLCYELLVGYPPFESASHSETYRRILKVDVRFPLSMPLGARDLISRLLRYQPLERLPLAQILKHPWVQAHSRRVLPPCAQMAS
As to conditions: Aurora C; 0.1 μM; 10 μM ATP; read-out: % Enzyme Activity (relative to DSMO controls). Put shortly:
as §1

For assay [3], the target named is T3, panel of 60 human kinases (Homo sapiens, UniProt P35916).
T3 construct: purchased Reaction Biology Corp
As to conditions: FLT4/VEGFR3; 0.1 μM; 10 μM ATP; read-out: % Enzyme Activity (relative to DSMO controls). The gist of the method:
as §1

Assay [4] has as its target T4, panel of 60 human kinases (Homo sapiens, UniProt Q13627).
T4 construct: purchased Reaction Biology Corp
The note with it: DYRK/RK1A; 0.1 μM; 10 μM ATP; read-out: % Enzyme Activity (relative to DSMO controls). Put shortly:
as §1

Assay [5] concerns the target T5, panel of 60 human kinases (Homo sapiens, UniProt O94806).
T5 construct: purchased Reaction Biology Corp
T5 sequence (O94806 1-890): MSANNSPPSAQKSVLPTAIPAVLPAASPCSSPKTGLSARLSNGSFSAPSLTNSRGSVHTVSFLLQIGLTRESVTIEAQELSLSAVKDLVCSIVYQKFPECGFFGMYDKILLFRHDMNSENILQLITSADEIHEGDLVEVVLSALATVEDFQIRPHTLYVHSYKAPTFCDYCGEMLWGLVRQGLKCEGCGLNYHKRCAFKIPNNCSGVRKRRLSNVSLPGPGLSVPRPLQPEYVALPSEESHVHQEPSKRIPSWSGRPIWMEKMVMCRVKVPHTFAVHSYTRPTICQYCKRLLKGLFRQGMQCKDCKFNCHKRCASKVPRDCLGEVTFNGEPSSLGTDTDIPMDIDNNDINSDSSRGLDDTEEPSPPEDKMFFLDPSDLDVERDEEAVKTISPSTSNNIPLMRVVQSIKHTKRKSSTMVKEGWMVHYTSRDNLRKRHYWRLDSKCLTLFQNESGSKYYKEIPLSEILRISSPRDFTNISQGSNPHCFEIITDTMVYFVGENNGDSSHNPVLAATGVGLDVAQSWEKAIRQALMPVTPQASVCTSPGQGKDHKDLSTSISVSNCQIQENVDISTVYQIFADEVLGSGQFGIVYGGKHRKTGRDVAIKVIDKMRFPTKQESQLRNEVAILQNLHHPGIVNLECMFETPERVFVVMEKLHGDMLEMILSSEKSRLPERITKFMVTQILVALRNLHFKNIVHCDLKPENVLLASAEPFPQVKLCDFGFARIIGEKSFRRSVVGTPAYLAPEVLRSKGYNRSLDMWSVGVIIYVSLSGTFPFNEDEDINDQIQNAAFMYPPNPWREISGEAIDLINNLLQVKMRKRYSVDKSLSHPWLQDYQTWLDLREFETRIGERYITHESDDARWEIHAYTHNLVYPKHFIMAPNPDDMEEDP
The note with it: PKCnu/PRKD3; 0.1 μM; 10 μM ATP; read-out: % Enzyme Activity (relative to DSMO controls). Put shortly: as §1

Assay [6] deals with T6, panel of 60 human kinases (Homo sapiens, UniProt P53779).
T6 construct: purchased Reaction Biology Corp
The note with it: JNK3; 0.1 μM; 10 μM ATP; read-out: % Enzyme Activity (relative to DSMO controls). The gist of the method:
as §1

Assay [7] addresses T7, panel of 60 human kinases (Homo sapiens, UniProt P49840).
T7 construct: purchased Reaction Biology Corp
As to conditions: GSK3a; 0.1 μM; 10 μM ATP; read-out: % Enzyme Activity (relative to DSMO controls). The gist of the method: as §1

Assay [8] addresses T8, panel of 60 human kinases (Homo sapiens, UniProt P50750).
T8 construct: purchased Reaction Biology Corp
The note with it: 0.1 μM, 10 μM ATP, read-out: % Enzyme Activity (relative to DSMO controls). The gist of the method:
as §1

Where two headings read alike, the source gives them in different places.

T3 sequence (P35916 25-1363): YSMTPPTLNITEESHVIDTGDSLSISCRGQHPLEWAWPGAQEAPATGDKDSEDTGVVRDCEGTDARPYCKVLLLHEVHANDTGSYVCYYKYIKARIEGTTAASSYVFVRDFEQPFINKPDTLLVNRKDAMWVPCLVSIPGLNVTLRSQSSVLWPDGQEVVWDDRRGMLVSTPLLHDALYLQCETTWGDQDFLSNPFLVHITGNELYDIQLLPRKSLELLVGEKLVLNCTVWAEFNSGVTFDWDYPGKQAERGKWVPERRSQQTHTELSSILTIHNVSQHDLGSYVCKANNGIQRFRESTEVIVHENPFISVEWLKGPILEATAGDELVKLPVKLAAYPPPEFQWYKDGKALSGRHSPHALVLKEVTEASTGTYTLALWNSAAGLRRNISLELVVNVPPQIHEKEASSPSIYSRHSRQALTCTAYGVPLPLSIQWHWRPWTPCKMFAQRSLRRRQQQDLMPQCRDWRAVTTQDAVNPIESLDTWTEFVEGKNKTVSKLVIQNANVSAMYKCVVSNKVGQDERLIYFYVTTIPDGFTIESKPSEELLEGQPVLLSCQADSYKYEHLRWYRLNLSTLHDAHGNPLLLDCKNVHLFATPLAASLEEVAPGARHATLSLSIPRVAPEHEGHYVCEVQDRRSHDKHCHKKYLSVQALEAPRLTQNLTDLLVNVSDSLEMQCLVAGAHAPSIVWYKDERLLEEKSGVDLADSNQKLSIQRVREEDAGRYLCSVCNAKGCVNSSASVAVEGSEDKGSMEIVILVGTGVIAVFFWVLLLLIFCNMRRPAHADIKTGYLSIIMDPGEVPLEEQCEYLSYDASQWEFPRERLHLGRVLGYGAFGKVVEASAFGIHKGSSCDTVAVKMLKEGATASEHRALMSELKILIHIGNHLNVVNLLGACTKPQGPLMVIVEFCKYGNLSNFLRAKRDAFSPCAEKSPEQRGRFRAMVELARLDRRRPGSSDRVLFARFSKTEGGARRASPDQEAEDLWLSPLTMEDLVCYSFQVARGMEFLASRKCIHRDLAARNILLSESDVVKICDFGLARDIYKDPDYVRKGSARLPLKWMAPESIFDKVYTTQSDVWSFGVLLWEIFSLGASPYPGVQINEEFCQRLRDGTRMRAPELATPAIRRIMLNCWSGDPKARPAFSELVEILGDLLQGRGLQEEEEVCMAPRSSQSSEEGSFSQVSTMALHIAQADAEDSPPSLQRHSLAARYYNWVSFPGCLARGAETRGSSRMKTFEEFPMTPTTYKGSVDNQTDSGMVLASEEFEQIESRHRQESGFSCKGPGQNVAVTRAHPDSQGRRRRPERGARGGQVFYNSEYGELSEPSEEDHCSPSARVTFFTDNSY
T1 sequence (P11802 whole entry): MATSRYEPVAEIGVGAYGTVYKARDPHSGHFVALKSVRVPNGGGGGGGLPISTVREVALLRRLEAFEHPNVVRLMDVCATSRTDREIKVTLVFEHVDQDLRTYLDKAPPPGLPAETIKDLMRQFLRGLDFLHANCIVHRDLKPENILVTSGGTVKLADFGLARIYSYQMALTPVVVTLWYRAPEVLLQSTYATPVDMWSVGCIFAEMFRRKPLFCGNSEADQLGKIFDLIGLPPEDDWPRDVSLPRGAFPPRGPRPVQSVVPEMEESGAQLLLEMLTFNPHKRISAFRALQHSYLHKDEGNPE
T8 sequence (P50750 whole entry): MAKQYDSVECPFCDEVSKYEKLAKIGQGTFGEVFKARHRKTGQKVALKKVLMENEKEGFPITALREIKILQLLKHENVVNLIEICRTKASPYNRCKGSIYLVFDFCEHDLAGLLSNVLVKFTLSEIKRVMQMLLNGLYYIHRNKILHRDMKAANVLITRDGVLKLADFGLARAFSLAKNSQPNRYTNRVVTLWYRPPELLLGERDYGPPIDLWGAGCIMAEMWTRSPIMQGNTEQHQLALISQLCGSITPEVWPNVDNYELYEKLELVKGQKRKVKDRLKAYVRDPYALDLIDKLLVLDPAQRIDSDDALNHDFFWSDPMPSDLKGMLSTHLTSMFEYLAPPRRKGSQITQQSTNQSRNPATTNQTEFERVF
T7 sequence (P49840 whole entry): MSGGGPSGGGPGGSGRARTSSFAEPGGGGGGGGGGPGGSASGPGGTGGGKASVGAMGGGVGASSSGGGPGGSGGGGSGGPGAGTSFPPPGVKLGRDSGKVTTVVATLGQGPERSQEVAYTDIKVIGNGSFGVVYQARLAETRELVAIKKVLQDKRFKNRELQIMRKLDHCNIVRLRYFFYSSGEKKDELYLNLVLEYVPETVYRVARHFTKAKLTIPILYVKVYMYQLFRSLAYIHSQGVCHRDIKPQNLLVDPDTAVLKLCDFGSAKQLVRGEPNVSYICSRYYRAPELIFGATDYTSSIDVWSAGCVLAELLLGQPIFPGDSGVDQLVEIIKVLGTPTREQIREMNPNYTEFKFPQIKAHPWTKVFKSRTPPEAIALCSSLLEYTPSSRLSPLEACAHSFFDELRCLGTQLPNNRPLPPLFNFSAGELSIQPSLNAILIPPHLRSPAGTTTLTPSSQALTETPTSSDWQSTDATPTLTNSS
T6 sequence (P53779 whole entry): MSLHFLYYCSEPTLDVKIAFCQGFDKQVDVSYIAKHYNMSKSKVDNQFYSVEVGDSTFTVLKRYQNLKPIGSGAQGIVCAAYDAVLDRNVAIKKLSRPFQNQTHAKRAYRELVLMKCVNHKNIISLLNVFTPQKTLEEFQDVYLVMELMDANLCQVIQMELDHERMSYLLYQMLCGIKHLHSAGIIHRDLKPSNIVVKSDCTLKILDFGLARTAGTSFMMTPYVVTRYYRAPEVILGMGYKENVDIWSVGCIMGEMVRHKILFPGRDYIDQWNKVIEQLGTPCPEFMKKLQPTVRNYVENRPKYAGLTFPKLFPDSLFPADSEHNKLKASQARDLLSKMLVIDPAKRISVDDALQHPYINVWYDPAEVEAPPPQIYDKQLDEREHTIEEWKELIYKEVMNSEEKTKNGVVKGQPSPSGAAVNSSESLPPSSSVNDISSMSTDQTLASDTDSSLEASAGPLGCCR

As for `CN1CCN(Cc2ccc(-c3cnc4[nH]cc(-c5ccc6[nH]ccc6c5)c4c3)cc2)CC1` [Compound 1, 3-(1H-Indol-5-yl)-5-(4-((4-methylpiperazin-1-yl)methyl)phenyl)-1H-pyrrolo[2,3-b]pyridine, reference compound], the remaining activity at 0.1 µM in assay [1] (CDK4/cyclin D1) came out at 51%; in assay [1] (CDK4/cyclin D3), 49.1%; in assay [2], 82.8%; in assay [3], 34.5%; in assay [4] it was 41%; in assay [5] it was 16.1%. The remaining activity at 0.1 µM in assay [6] is 122%; in assay [7] it was 90.8%; in assay [8] (CDK9/cyclin K), 102%; in assay [8] (CDK9/cyclin T1) it was 96.6%; in assay [8] (CDK9/cyclin T2) it was 98.1%.
Regarding `CN1CCN(Cc2ccc(-c3cnc4[nH]cc(-c5cccc(Cl)c5)c4c3)cc2)CC1` [Compound 7ad, 3-(3-Chlorophenyl)-5-(4-((4-methylpiperazin-1-yl)methyl)phenyl)-1H-pyrrolo[2,3-b]pyridine], the remaining activity at 0.1 µM was 70.9% in assay [1] (CDK4/cyclin D1); 58.1% in assay [1] (CDK4/cyclin D3); 104% in assay [2]; 80.5% in assay [3]; 53.4% in assay [4]; 17.5% in assay [5]. Further, the remaining activity at 0.1 µM was found to be 106% in assay [6]; 97.1% in assay [7]; 99.7% in assay [8] (CDK9/cyclin K); 78% in assay [8] (CDK9/cyclin T1); 95.2% in assay [8] (CDK9/cyclin T2).
As to `CN1CCN(Cc2ccc(-c3cnc4[nH]cc(-c5cnn(Cc6ccccc6)c5)c4c3)cc2)CC1` [Compound 7ah, 3-(1-Benzyl-1H-pyrazol-4-yl)-5-(4-((4-methylpiperazin-1-yl)methyl)phenyl)-1H-pyrrolo[2,3-b]pyridine], the remaining activity at 0.1 µM is 25.9% in assay [1] (CDK4/cyclin D1); 26% in assay [1] (CDK4/cyclin D3); 78.5% in assay [2]; 34% in assay [3]; 4.52% in assay [4]; 7.09% in assay [5]. Besides, the remaining activity at 0.1 µM in assay [6] was determined as 81.8%; in assay [7] it was 32.5%; in assay [8] (CDK9/cyclin K) it was 93.3%; in assay [8] (CDK9/cyclin T1), 57.8%; in assay [8] (CDK9/cyclin T2), 82.7%.
In the case of `Cc1nn(C)c(C)c1-c1c[nH]c2ncc(-c3ccc(CN4CCN(C)CC4)cc3)cc12` [Compound 7ai, 5-(4-((4-Methylpiperazin-1-yl)methyl)phenyl)-3-(1,3,5-trimethyl-1H-pyrazol-4-yl)-1H-pyrrolo[2,3-b]pyridine], the remaining activity at 0.1 µM came out at 65.9% in assay [1] (CDK4/cyclin D1); 65.4% in assay [1] (CDK4/cyclin D3); 122% in assay [2]; 60.3% in assay [3]; 41.7% in assay [4]; 19.2% in assay [5]. For the same compound, the remaining activity at 0.1 µM in assay [6] is 107%; in assay [7] it was 84.7%; in assay [8] (CDK9/cyclin K), 99.7%; in assay [8] (CDK9/cyclin T1), 85.8%; in assay [8] (CDK9/cyclin T2), 84.8%.
Regarding `CN1CCN(Cc2ccc(-c3cnc4[nH]cc(-c5ccccc5Cl)c4c3)cc2)CC1` [Compound 7as, 3-(2-Chlorophenyl)-5-(4-((4-methylpiperazin-1-yl)methyl)phenyl)-1H-pyrrolo[2,3-b]pyridine], the remaining activity at 0.1 µM was determined as 31.9% in assay [1] (CDK4/cyclin D1); 39.7% in assay [1] (CDK4/cyclin D3); 94.2% in assay [2]; 23.2% in assay [3]; 42% in assay [4]; 18.8% in assay [5]. The remaining activity at 0.1 µM in assay [6] worked out at 111%; in assay [7], 96%; in assay [8] (CDK9/cyclin K), 96.6%; in assay [8] (CDK9/cyclin T1), 82.3%; in assay [8] (CDK9/cyclin T2) it was 74.2%.
Turning to `COc1ccccc1-c1c[nH]c2ncc(-c3ccc(CN4CCN(C)CC4)cc3)cc12` [Compound 7at, 3-(2-Methoxyphenyl)-5-(4-((4-methylpiperazin-1-yl)methyl)phenyl)-1H-pyrrolo[2,3-b]pyridine], the remaining activity at 0.1 µM in assay [1] (CDK4/cyclin D1) came to 14.1%; in assay [1] (CDK4/cyclin D3), 24.4%; in assay [2], 107%; in assay [3], 79.8%; in assay [4] it was 57.4%; in assay [5], 50.2%. The remaining activity at 0.1 µM in assay [6] is 104%; in assay [7] it was 82.8%; in assay [8] (CDK9/cyclin K), 79.5%; in assay [8] (CDK9/cyclin T1), 46.3%; in assay [8] (CDK9/cyclin T2) it was 37.4%.
Take `CN1CCN(Cc2ccc(-c3cnc4[nH]cc(-c5ccc6c(c5)OCCO6)c4c3)cc2)CC1` [Compound 7d, 3-(2,3-Dihydrobenzo[b][1,4]dioxin-6-yl)-5-(4-((4-methylpiperazin-1-yl)methyl)phenyl)-1H-pyrrolo[2,3-b]pyridine]: the remaining activity at 0.1 µM worked out at 19.4% in assay [1] (CDK4/cyclin D1); 26.7% in assay [1] (CDK4/cyclin D3); 92.3% in assay [2]; 39% in assay [3]; 3.15% in assay [4]; 6.42% in assay [5]. Also, the remaining activity at 0.1 µM in assay [6] was 120%; in assay [7], 13.6%; in assay [8] (CDK9/cyclin K), 95.8%; in assay [8] (CDK9/cyclin T1), 85.5%; in assay [8] (CDK9/cyclin T2) it was 93.7%.
With `CN1CCN(Cc2ccc(-c3cnc4[nH]cc(-c5ccncc5)c4c3)cc2)CC1` [Compound 7n, 5-(4-((4-Methylpiperazin-1-yl)methyl)phenyl)-3-(pyridin-4-yl)-1H-pyrrolo[2,3-b]pyridine], the remaining activity at 0.1 µM was 27.8% in assay [1] (CDK4/cyclin D1); 37% in assay [1] (CDK4/cyclin D3); 101% in assay [2]; 66% in assay [3]; 40.3% in assay [4]; 42.3% in assay [5]. The remaining activity at 0.1 µM worked out at 115% in assay [6]; 75.3% in assay [7]; 83.4% in assay [8] (CDK9/cyclin K); 47.9% in assay [8] (CDK9/cyclin T1); 38.8% in assay [8] (CDK9/cyclin T2).
